Experimental data as given in publication PMC3388080 (PLoS ONE, 2012).
Marks after values point to notes of the source that are not given here.

Tested on: male Sprague-Dawley rats
Assay: EEG/EMG/Tcore/LMA telemetry sleep study 3 (almorexant vs ZOL)
Assay type: in vivo, rat
Conditions: for REM:NR ratio: 6 h after dosing
Procedure: All rodent electroencephalograph (EEG) studies were performed at SRI International. Three groups of eight male Sprague-Dawley rats (300±25 g; Charles River, Wilmington, MA) were implanted with chronic recording devices (F40-EET, Data Sciences Inc., St Paul, MN) for continuous recordings of EEG, electromyograph (EMG), core body temperature (Tcore), and LMA via telemetry as previously described. Data recording and scoring were performed as previously reported (see also Supplemental Material and Methods). The EEG and EMG data were scored in 10 sec epochs for waking (W), rapid eye movement sleep (REM), and non-REM sleep (NR). Tcore and LMA (counts per minute) were analyzed as hourly means. Data from the EEG studies are reported in hourly means such that the hourly time ZT1 refers to the hour between time points ZT0 and ZT1.
For each of the three separate studies, a repeated measures counter-balanced design was employed in which each rat received five separate dosings. […] All dosings were administered ip in a volume of 2 ml/kg. A minimum of 3 d elapsed between doses. Dosing occurred during the middle of the rats’ normal active period at the start of ZT19 and was typically completed within 10 min. Animals were continuously recorded for 6 h prior to dosing and for 18 h following dosing.

[1] = 6 h Average, almorexant 10 mg/kg ip
[2] = 6 h Total, almorexant 10 mg/kg ip

CNC(=O)[C@@H](c1ccccc1)N1CCc2cc(OC)c(OC)cc2[C@@H]1CCc1ccc(C(F)(F)F)cc1 [almorexant, (2R)-2-[(1S)-6,7-Dimethoxy-1-[2-(4-trifluoromethyl-phenyl)-ethyl]-3,4-dihydro-1H-isoquinolin-2-yl]-N-methyl-2-phenyl-acetamide]
cumulative REM (in words) (30 mg/kg ip, first 2 h): Cumulative REM also increased
cumulative REM (in words) (100 mg/kg ip, 6 h period): Cumulative REM also increased
numbers of W and NR bouts (in words) (100 mg/kg ip, ZT19, ZT20, ZT22-ZT24): increased numbers of W and NR bouts
W bout duration (in words) (100 mg/kg ip, ZT22, vs vehicle): decreased
number of REM bouts (in words) (100 mg/kg ip, ZT22-ZT24): increased
LMA (in words) (100 mg/kg ip, across 6 h, vs vehicle): LMA was decreased
NR latency (in words) (30 and 100 mg/kg ip at ZT19, vs vehicle): reduced NR latency
cumulative NR (in words) (30 and 100 mg/kg ip, 2, 4 and 6 h): increased cumulative NR
NR bout duration (6 h Average, 30 mg/kg ip): 1.25 ±0.09^+
REM bout duration (6 h Average, 30 mg/kg ip): 1.32 ± 0.10
W bout duration (6 h Average, 30 mg/kg ip): 2.53 ± 0.41
NR bout duration (6 h Average, 100 mg/kg ip): 1.20 ± 0.08^+
REM bout duration (6 h Average, 100 mg/kg ip): 1.20 ± 0.12
W bout duration (6 h Average, 100 mg/kg ip): 1.59 ± 0.20*^+
NR bout duration [1]: 1.22 ± 0.08^+
REM bout duration [1]: 1.11 ± 0.13
W bout duration [1]: 4.37 ± 1.09
Number of NR bouts (6 h Total, 30 mg/kg ip): 103.0 ± 9.60*^+
Number of REM bouts (6 h Total, 30 mg/kg ip): 20.38 ± 3.12^+
Number of NR bouts (6 h Total, 100 mg/kg ip): 127.0 ± 6.02*^+
Number of REM bouts (6 h Total, 100 mg/kg ip): 27.75 ± 3.26*^+
Number of W bouts (6 h Total, 100 mg/kg ip): 109.38 ±7.91*^+
Number of NR bouts [2]: 82.00 ±9.10
Number of REM bouts [2]: 18.00 ± 3.80^+
Number of W bouts [2]: 67.50 ± 8.89
REM:NR ratio (10 mg/kg ip (almorexant)): 0.19±0.026^+
REM:NR ratio (30 mg/kg ip): 0.20±0.022^+
REM:NR ratio (100 mg/kg ip): 0.21±0.021^+
NR during the subsequent light period (in words) (ZT1 and ZT6, 30 mg/kg ip, vs vehicle): NR increased
NR bout duration (ZT19, 30 mg/kg ip): 1.33 ± 0.14^+
Number of NR bouts (ZT19, 30 mg/kg ip): 15.00 ± 1.83
Number of REM bouts (ZT19, 30 mg/kg ip): 2.63 ± 0.50*^+
Number of W bouts (ZT19, 30 mg/kg ip): 10.38 ± 1.53
REM bout duration (ZT19, 30 mg/kg ip): 1.52 ± 0.26*^+
W bout duration (ZT19, 30 mg/kg ip): 4.69 ± 1.87
NR bout duration (ZT19, 100 mg/kg ip): 1.50 ± 0.14*^+
Number of NR bouts (ZT19, 100 mg/kg ip): 14.00 ± 1.25
Number of REM bouts (ZT19, 100 mg/kg ip): 1.25 ± 0.49
Number of W bouts (ZT19, 100 mg/kg ip): 12.25 ± 1.74
REM bout duration (ZT19, 100 mg/kg ip): 1.44 ± 0.38*^+
W bout duration (ZT19, 100 mg/kg ip): 3.31 ± 0.65
NR bout duration (ZT19, almorexant 10 mg/kg ip): 1.27 ± 0.15^+
Number of NR bouts (ZT19, almorexant 10 mg/kg ip): 8.63 ± 1.82
Number of REM bouts (ZT19, almorexant 10 mg/kg ip): 1.75 ± 0.53
Number of W bouts (ZT19, almorexant 10 mg/kg ip): 6.63 ± 1.50
REM bout duration (ZT19, almorexant 10 mg/kg ip): 0.76 ± 0.19*^+
W bout duration (ZT19, almorexant 10 mg/kg ip): 9.90 ± 3.21
NR bout duration (ZT20, 30 mg/kg ip): 1.34 ± 0.08^+
Number of NR bouts (ZT20, 30 mg/kg ip): 19.75 ± 2.25
Number of REM bouts (ZT20, 30 mg/kg ip): 4.38 ± 1.08^+
Number of W bouts (ZT20, 30 mg/kg ip): 16.38 ± 1.68^+
REM bout duration (ZT20, 30 mg/kg ip): 1.37 ± 0.05^+
W bout duration (ZT20, 30 mg/kg ip): 1.96 ± 0.75
NR bout duration (ZT20, 100 mg/kg ip): 1.37 ± 0.12^+
Number of NR bouts (ZT20, 100 mg/kg ip): 22.25 ± 2.36
Number of REM bouts (ZT20, 100 mg/kg ip): 3.00 ± 1.20
Number of W bouts (ZT20, 100 mg/kg ip): 18.38 ± 1.40*^+
REM bout duration (ZT20, 100 mg/kg ip): 1.08 ± 0.15^+
W bout duration (ZT20, 100 mg/kg ip): 1.41 ± 0.13^+
NR bout duration (ZT20, almorexant 10 mg/kg ip): 1.31 ± 0.09^+
Number of NR bouts (ZT20, almorexant 10 mg/kg ip): 19.38 ± 2.38
Number of REM bouts (ZT20, almorexant 10 mg/kg ip): 4.13 ± 0.97^+
Number of W bouts (ZT20, almorexant 10 mg/kg ip): 14.88 ± 2.05^+
REM bout duration (ZT20, almorexant 10 mg/kg ip): 1.16 ± 0.17^+
W bout duration (ZT20, almorexant 10 mg/kg ip): 2.37 ± 0.70
NR bout duration (ZT21, 30 mg/kg ip): 1.27 ± 0.09^+
Number of NR bouts (ZT21, 30 mg/kg ip): 20.75 ± 1.39
Number of REM bouts (ZT21, 30 mg/kg ip): 5.25 ± 1.16^+
Number of W bouts (ZT21, 30 mg/kg ip): 18.38 ± 1.39^+
REM bout duration (ZT21, 30 mg/kg ip): 1.26 ± 0.14
W bout duration (ZT21, 30 mg/kg ip): 1.43 ± 0.30^+
NR bout duration (ZT21, 100 mg/kg ip): 1.31 ± 0.15^+
Number of NR bouts (ZT21, 100 mg/kg ip): 23.75 ± 1.47
Number of REM bouts (ZT21, 100 mg/kg ip): 6.75 ± 1.06^+
Number of W bouts (ZT21, 100 mg/kg ip): 20.88 ± 2.21^+
REM bout duration (ZT21, 100 mg/kg ip): 1.28 ± 0.18
W bout duration (ZT21, 100 mg/kg ip): 0.93 ± 0.15^+
NR bout duration (ZT21, almorexant 10 mg/kg ip): 1.17 ± 0.16^+
Number of NR bouts (ZT21, almorexant 10 mg/kg ip): 15.88 ± 2.00
Number of REM bouts (ZT21, almorexant 10 mg/kg ip): 4.75 ± 1.13^+
Number of W bouts (ZT21, almorexant 10 mg/kg ip): 13.50 ± 1.73
REM bout duration (ZT21, almorexant 10 mg/kg ip): 1.40 ± 0.16
W bout duration (ZT21, almorexant 10 mg/kg ip): 3.03 ± 0.90
NR bout duration (ZT22, 30 mg/kg ip): 1.04 ± 0.11^+
Number of NR bouts (ZT22, 30 mg/kg ip): 17.25 ± 2.58
Number of REM bouts (ZT22, 30 mg/kg ip): 2.88 ± 0.74
Number of W bouts (ZT22, 30 mg/kg ip): 14.88 ± 1.99
REM bout duration (ZT22, 30 mg/kg ip): 1.26 ± 0.17
W bout duration (ZT22, 30 mg/kg ip): 3.07 ± 0.83
NR bout duration (ZT22, 100 mg/kg ip): 1.12 ± 0.15
Number of NR bouts (ZT22, 100 mg/kg ip): 23.88 ± 1.34
Number of REM bouts (ZT22, 100 mg/kg ip): 7.38 ± 1.49*^+
Number of W bouts (ZT22, 100 mg/kg ip): 20.00 ± 0.89*^+
REM bout duration (ZT22, 100 mg/kg ip): 1.07 ± 0.18
W bout duration (ZT22, 100 mg/kg ip): 1.13 ± 0.15^+
NR bout duration (ZT22, almorexant 10 mg/kg ip): 1.07 ± 0.19^+
Number of NR bouts (ZT22, almorexant 10 mg/kg ip): 14.38 ± 2.58
Number of REM bouts (ZT22, almorexant 10 mg/kg ip): 2.88 ± 0.81
Number of W bouts (ZT22, almorexant 10 mg/kg ip): 13.00 ± 2.92
REM bout duration (ZT22, almorexant 10 mg/kg ip): 1.05 ± 0.36
W bout duration (ZT22, almorexant 10 mg/kg ip): 4.74 ± 1.57
NR bout duration (ZT23, 30 mg/kg ip): 1.03 ± 0.12
Number of NR bouts (ZT23, 30 mg/kg ip): 16.63 ± 2.88
Number of REM bouts (ZT23, 30 mg/kg ip): 2.88 ± 0.93
Number of W bouts (ZT23, 30 mg/kg ip): 15.13 ± 2.71
REM bout duration (ZT23, 30 mg/kg ip): 0.91 ± 0.19
W bout duration (ZT23, 30 mg/kg ip): 5.53 ± 3.36
NR bout duration (ZT23, 100 mg/kg ip): 0.90 ± 0.07
Number of NR bouts (ZT23, 100 mg/kg ip): 23.13 ± 2.61
Number of REM bouts (ZT23, 100 mg/kg ip): 4.00 ± 0.82
Number of W bouts (ZT23, 100 mg/kg ip): 21.00 ± 3.02
REM bout duration (ZT23, 100 mg/kg ip): 1.16 ± 0.12
W bout duration (ZT23, 100 mg/kg ip): 2.15 ± 0.68
NR bout duration (ZT23, almorexant 10 mg/kg ip): 1.11 ± 0.19
Number of NR bouts (ZT23, almorexant 10 mg/kg ip): 8.00 ± 1.68
Number of REM bouts (ZT23, almorexant 10 mg/kg ip): 1.25 ± 0.65
Number of W bouts (ZT23, almorexant 10 mg/kg ip): 6.63 ± 1.88
REM bout duration (ZT23, almorexant 10 mg/kg ip): 0.61 ± 0.17
W bout duration (ZT23, almorexant 10 mg/kg ip): 12.59 ± 3.87
NR bout duration (ZT24, 30 mg/kg ip): 1.50 ± 0.24
Number of NR bouts (ZT24, 30 mg/kg ip): 19.88 ± 2.63
Number of REM bouts (ZT24, 30 mg/kg ip): 2.38 ± 0.98
Number of W bouts (ZT24, 30 mg/kg ip): 12.00 ± 2.70
REM bout duration (ZT24, 30 mg/kg ip): 0.98 ± 0.15
W bout duration (ZT24, 30 mg/kg ip): 4.32 ± 1.06
NR bout duration (ZT24, 100 mg/kg ip): 1.14 ± 0.08
Number of NR bouts (ZT24, 100 mg/kg ip): 19.88 ± 1.14
Number of REM bouts (ZT24, 100 mg/kg ip): 5.25 ± 1.08*^+
Number of W bouts (ZT24, 100 mg/kg ip): 15.88 ± 1.14
REM bout duration (ZT24, 100 mg/kg ip): 1.16 ± 0.14^+
W bout duration (ZT24, 100 mg/kg ip): 1.92 ± 0.34
NR bout duration (ZT24, almorexant 10 mg/kg ip): 1.14 ± 0.14
Number of NR bouts (ZT24, almorexant 10 mg/kg ip): 15.25 ± 2.30
Number of REM bouts (ZT24, almorexant 10 mg/kg ip): 3.25 ± 0.94
Number of W bouts (ZT24, almorexant 10 mg/kg ip): 12.00 ± 2.10
REM bout duration (ZT24, almorexant 10 mg/kg ip): 1.02 ± 0.21^+
W bout duration (ZT24, almorexant 10 mg/kg ip): 4.00 ± 1.17
REM bout duration (in words) (first hour after treatment): significantly increased REM bout duration
Tcore (in words) (high concentration tested, across 6 h): decreased Tcore
REM bouts compared to vehicle (highest dose (100 mg/kg), latter half of the dark period): 2 to 3 fold
latency to REM sleep (in words) (only 30 mg/kg ip at ZT19, vs vehicle): decreased latency to REM sleep
